These results are taken from article PMC4076294 (Journal of the American Chemical Society, 2014).

The test system of one series is A2780. The experiment in a line: MTT assay. The series is classed as cell-based, human. Particulars: read-out: IC50 at 48 h; A2780, 48 h. (Tetrazolium dyes change colour on reduction, which living cells bring about.)
In series [1] the test system is A2780 ovarian cancer cells. Kind of series: LIVE/DEAD cell viability assay. Type of series: cell-based, human. Conditions: 10 μM, 48 h.
Series [2] deals with nuclear DNA of A2780 cells. The experiment in a line: DNA platination experiment. The series is classed as cell-based, human. Particulars: 5 μM, 5 h, then 16 h in fresh media.
For series [3] the following is noted: comparison values; cited from earlier work.

“And” between values parts separate entries of the source, which are not always exact repeats. Equal values may be shown once.

The term IC50 denotes the concentration that gives 50% inhibition. `N.N.[Cl][Pt][Cl]` [cisplatin]: the IC50 in the series on A2780 was determined as 6.35 ± 1.39 µM. Besides, in series [1], the “LIVE/DEAD cell assay outcome” value was “mostly survived”. The “extent of DNA platination” value in series [2] is listed as 36.4 ± 5.5 Pt adducts/10^6 nucleotides.
With `CC(=O)[O][Pt]([NH2])([Cl])([Cl])([NH]C1CCCCC1)[O]C(C)=O` [satraplatin], the “half-life in blood (t1/2)” value in series [3] is 6.3 min and ~6 min.
